Data reported in BindingDB's records for doi:10.1016/j.bmcl.2017.03.037 (Rigel Pharmaceuticals, 2017).

test: Induction of nuclear translocation of human GFP-tagged NFATc1 expressed in virus infected primary human skeletal muscle myoblasts after 3 hrs by DAPI staining based assay

Structure (SMILES) | EC50
CC(C)n1cc(-c2ccncc2)c2ccncc21 | 0.31 µM
c1cc(-c2cn(CCC3CC3)c3cnccc23)ccn1 | 1.59 µM
Nc1nccc(-c2c[nH]c3cnccc23)n1 | 4.8 µM
c1cc(-c2c[nH]c3cnccc23)ccn1 | 2.98 µM
c1cc(-c2cn(CCCN3CCOCC3)c3cnccc23)ccn1 | 6.96 µM
COc1cccc2c(-c3ccnc(N)n3)c[nH]c12 | 9.8 µM
Cc1cc(-c2c[nH]c3cnccc23)ccn1 | 20.8 µM
N#Cc1cccc2c(-c3ccnc(N)n3)c[nH]c12 | 21.7 µM
Cn1cc(-c2ccncc2)c2ccncc21 | 2.21 µM
Fc1cc(-c2c[nH]c3cnccc23)ccn1 | 4.85 µM
c1ccc2c(-c3c[nH]c4cnccc34)ccnc2c1 | 43 µM
Fc1ccc(Cn2cc(-c3ccncc3)c3ccncc32)cc1 | 7.58 µM
COCCn1cc(-c2ccncc2)c2ccncc21 | 6.9 µM
Clc1cnccc1-c1c[nH]c2cnccc12 | 5.31 µM
